Results on 14 compounds are retold here after ChEMBL document CHEMBL5252618, “Discovery and Biosynthesis of Imidazolium Antibiotics from the Probiotic Bacillus licheniformis” (J Nat Prod, 2023).

Several values for one entry are separate records, joined by “and”; a condition that tells them apart may be missing. Equal entries are not always repeated. Activity calls are given as the source filed them. The calls are words filed in the database; no cut-off is given here.

The subject of one series is RAW264.7. The series is described as follows: Antiinflammatory activity in mouse RAW 264.7 cells assessed as inhibition of LPS-induced NO production at 10 uM pretreated for 1 hr followed by LPS stimulation and further incubated for 24 hrs by griess reagent based assay. The class given is functional, cell-based. The note with it: time 25.0 hrs.
The next series relates to HCT-116. The series is described as follows: Cytotoxicity against human HCT-116 cells at 31.25 to 500 uM incubated for 24 hrs by CellTiter96 aqueous one solution based assay. The class given is functional, cell-based. The note with it: dose 31.25-500 µM.
The subject of a further series is WI-38. The series is described as follows: Cytotoxicity against human WI-38 cells at 31.25 to 500 uM incubated for 24 hrs by CellTiter96 aqueous one solution based assay. It counts as toxicity, cell-based. The following applies: wi-38, 24 h, dose 31.25-500 µM.
The next series has as its system NIH3T3. Kind of series: Cytotoxicity against mouse NIH3T3 cells at 31.25 to 500 uM incubated for 24 hrs by CellTiter96 aqueous one solution based assay. It counts as toxicity, cell-based. The following applies: nih3t3, 24 h, dose 31.25-500 µM.
The subject of series [1] is Lacticaseibacillus paracasei. Kind of series: Antibacterial activity against Lacticaseibacillus paracasei subsp.paracasei ATCC25302 assessed as bacterial growth inhibition incubated for overnight by visual analysis. The note with it: subsp. paracasei ATCC 25302. The class given is functional.
A short description of series [2]: Cytotoxicity against human Chang liver cells at 31.25 to 500 uM incubated for 24 hrs by CellTiter96 aqueous one solution based assay. The class given is toxicity, cell-based. The following applies: dose 31.25-500 µM.
Another series relates to HepG2. The series is described as follows: Cytotoxicity against human HepG2 cells at 31.25 to 500 uM incubated for 24 hrs by CellTiter96 aqueous one solution based assay. The class given is functional, cell-based. The note with it: dose 31.25-500 µM.
In a further series the test system is A549. Kind of series: Cytotoxicity against human A549 cells at 31.25 to 500 uM incubated for 24 hrs by CellTiter96 aqueous one solution based assay. The class given is functional, cell-based. The note with it: dose 31.25-500 µM.
A further series relates to HT-1080. The series is described as follows: Cytotoxicity against human HT-1080 cells at 31.25 to 500 uM incubated for 24 hrs by CellTiter96 aqueous one solution based assay. It counts as functional, cell-based. The note with it: dose 31.25-500 µM.
The test system of series [3] is Escherichia coli. The series is described as follows: Synergistic antibacterial activity against wild type Escherichia coli MG1655 assessed as potentiation of colistin-induced antibacterial effect by measuring colistin MIC at 0.32 to 84 ug/ml incubated for 24 hrs by checker board assay (reference value: 2.5 ug/ml). The class given is functional. The following applies: dose 0.32-84 µg/ml.

Series [4] has as its system Acinetobacter baumannii. The series is described as follows: Synergistic antibacterial activity against Acinetobacter baumannii assessed as potentiation of colistin-induced antibacterial effect by measuring colistin MIC at 0.32 to 84 ug/ml incubated for 24 hrs by checker board assay (reference value: 0.2 ug/ml). It counts as functional. The note with it: dose 0.32-84 µg/ml.

Series [5] concerns Brevibacterium epidermidis. The series is described as follows: Antibacterial activity against Brevibacterium epidermidis ATCC35514 assessed as bacterial growth inhibition incubated for overnight by visual analysis. It counts as functional.
The subject of series [6] is Acinetobacter baumannii. Kind of series: Antibacterial activity against Acinetobacter baumannii harboring LPS-deficient mutant lpxC assessed as bacterial growth inhibition incubated for overnight by visual analysis. The class given is functional.
In series [7] the test system is Acinetobacter baumannii. The series is described as follows: Antibacterial activity against Acinetobacter baumannii assessed as bacterial growth inhibition incubated for overnight by visual analysis. The class given is functional.
In series [8] the test system is Escherichia coli. Kind of series: Synergistic antibacterial activity against wild type Escherichia coli MG1655 assessed as potentiation of colistin-induced antibacterial effect by measuring […] in colistin MIC at 0.32 to 84 ug/ml incubated for 24 hrs by checker board assay relative to control. It counts as functional. The following applies: dose 0.32-84 µg/ml.

Series [9] has as its system Escherichia coli. The series is described as follows: Antibacterial activity against Escherichia coli MG1655 assessed as bacterial growth inhibition incubated for overnight by visual analysis. It counts as functional.
The test system of series [10] is Staphylococcus aureus. Kind of series: Antibacterial activity against methicillin-resistant Staphylococcus aureus USA300 assessed as bacterial growth inhibition incubated for overnight by visual analysis. The class given is functional.
For series [11], the system named is Acinetobacter baumannii. The series is described as follows: Synergistic antibacterial activity against Acinetobacter baumannii assessed as potentiation of colistin-induced antibacterial effect by measuring […] in colistin MIC at 0.32 to 84 ug/ml incubated for 24 hrs by checker board assay relative to control. It counts as functional. The following applies: dose 0.32-84 µg/ml.

Series [12] deals with Escherichia coli. The series is described as follows: Antibacterial activity against Escherichia coli ATCC 25922 assessed as bacterial growth inhibition incubated for 18 hrs. The class given is functional.
The next series has as its system Bacillus subtilis. The series is described as follows: Antibacterial activity against Bacillus subtilis NRS-231 assessed as bacterial growth inhibition incubated for 18 hrs. It counts as functional.
The subject of series [13] is Staphylococcus aureus. Kind of series: Antibacterial activity against methicillin-resistant Staphylococcus aureus ATCC 33591 assessed as bacterial growth inhibition incubated for 18 hrs. It counts as functional.

For `Cc1c(C)[n+](CCc2c[nH]c3ccccc23)c(C)n1CCc1ccccc1`, in the series with RAW264.7, the inhibition entry is “inactive”. Moreover, the result in the series on HCT-116, in the series on HepG2, in the series on A549 and with HT-1080 was inactive. Also, the Activity result (in the series with WI-38; with NIH3T3; in series [2]) was “Non-Toxic” in each case. Further, in series [1], the MIC was > 36 µg/mL and > 100 µM.

Turning to `NCCc1c[nH]c2ccccc12` [TRYPTAMINE], the outcome in the series with HCT-116, in the series on HepG2, in the series with A549 and with HT-1080 was inactive. Further, the Activity entry (in the series on WI-38; with NIH3T3; in series [2]) was “Non-Toxic” throughout.

Consider `CCCc1n(CCc2c[nH]c3ccccc23)c(C)c(C)[n+]1CCc1c[nH]c2ccccc12`, for which the result in the series with HCT-116, in the series on HepG2, with A549 and with HT-1080 was inactive. Further, the MIC is 0.313 µg/mL in the series with Escherichia coli [3]; 0.05 µg/mL with Acinetobacter baumannii [4]; 1.3 µg/mL and 3.13 µM in series [5]; 0.7 µg/mL and 1.56 µM in series [1]; 2.6 µg/mL and 6.25 µM in the series with Acinetobacter baumannii [6]; over 100 µM with Acinetobacter baumannii [7]. Further, the MIC was over 100 µM with Escherichia coli [9]; 1.3 µg/mL and 3.13 µM with Staphylococcus aureus [10]. Besides, the Activity entry (in the series with WI-38; in the series with NIH3T3; in series [2]) was “Non-Toxic” each time. Further, the “fold change (FC)” value with Escherichia coli [8] is given as 8; with Acinetobacter baumannii [11] it was 4.

`Cc1c(C)[n+](CCc2c[nH]c3ccccc23)c(C)n1CCc1c[nH]c2ccccc12`: the result in the series on HCT-116, with HepG2, in the series with A549 and in the series with HT-1080 was inactive. Further, the Activity entry (with WI-38; in the series with NIH3T3; in series [2]) was “Non-Toxic” in each case. Besides, the MIC in [5] was over 100 µM; in series [1] it was 20 µg/mL and 50 µM; with Escherichia coli [12], over 50 µM; in the series with Acinetobacter baumannii [6] it was 40 µg/mL and 100 µM; with Acinetobacter baumannii [7], over 100 µM; in the series with Escherichia coli [9], over 100 µM. Moreover, the MIC was over 50 µM with Bacillus subtilis; over 50 µM with Staphylococcus aureus [13]; 20 µg/mL and 50 µM with Staphylococcus aureus [10].

With `Cc1c(C)[n+](CCc2c[nH]c3ccccc23)cn1CCc1ccccc1`, the outcome with HCT-116, in the series with HepG2, with A549 and with HT-1080 was inactive. The Activity entry (with WI-38; with NIH3T3; in series [2]) was “Non-Toxic” throughout. Moreover, the MIC in [1] was > 34 µg/mL and > 100 µM.

`CCCc1n(CCC(C)C)c(C)c(C)[n+]1CCc1c[nH]c2ccccc12`: the inhibition result in the series with RAW264.7 was “Active”. Moreover, the outcome in the series on HCT-116, in the series on HepG2, with A549 and with HT-1080 was inactive. For the same compound, the Activity entry (in the series on WI-38; in the series on NIH3T3; in series [2]) was “Non-Toxic” in each case. In addition, the MIC is over 100 µM in series [5]; 9 µg/mL and 25 µM in [1]; 9 µg/mL and 25 µM in the series on Acinetobacter baumannii [6]; over 100 µM in the series on Acinetobacter baumannii [7]; over 100 µM in the series with Escherichia coli [9]; over 100 µM with Staphylococcus aureus [10].

Take `CC(=O)c1cc(C)c(C)n1CCc1c[nH]c2ccccc12`: the inhibition entry in the series with RAW264.7 was “Active”. The result in the series on HCT-116, with HepG2, in the series on A549 and in the series with HT-1080 was inactive. Further, the Activity result (in the series on WI-38; with NIH3T3; in series [2]) was “Non-Toxic” throughout.

With `CCCC(=O)C(C)NCCc1c[nH]c2ccccc12` (stereo not drawn), the outcome in the series on HCT-116, with HepG2, in the series on A549 and in the series on HT-1080 was inactive. The Activity entry (in the series on WI-38; in the series with NIH3T3; in series [2]) was “Non-Toxic” throughout.

`O=c1[nH]cc(F)c(=O)[nH]1` [FLUOROURACIL]: the Activity entry (in the series on WI-38; with NIH3T3; in series [2]) was “Toxic” each time.

Take `CC(=O)C(C)NCCc1c[nH]c2ccccc12` (stereo not drawn): the outcome in the series on HCT-116, in the series on HepG2, in the series on A549 and with HT-1080 was inactive. Further, the Activity result (with WI-38; in the series on NIH3T3; in series [2]) was “Non-Toxic” each time. The MIC in series [5] was 12 µg/mL and 50 µM; in series [1], 6 µg/mL and 25 µM; in the series on Escherichia coli [9] it was over 100 µM; in the series on Staphylococcus aureus [10] it was 12 µg/mL and 50 µM.

For the compound `Cc1c(C)[n+](CCc2c[nH]c3ccccc23)cn1CCc1c[nH]c2ccccc12`, the outcome in the series with HCT-116, in the series with HepG2, in the series with A549 and with HT-1080 was inactive. The Activity entry (in the series with WI-38; with NIH3T3; in [2]) was “Non-Toxic” in each case. For the same compound, the MIC is over 100 µM in [5]; 19 µg/mL and 50 µM in series [1]; 38 µg/mL and 100 µM in the series on Acinetobacter baumannii [6]; over 100 µM in the series on Acinetobacter baumannii [7]; over 100 µM with Escherichia coli [9]; over 100 µM in the series on Staphylococcus aureus [10].

In the case of `CCCc1c(C)[n+](CCc2c[nH]c3ccccc23)c(CCC)n1CCc1c[nH]c2ccccc12`, the inhibition result in the series with RAW264.7 is “Active”. For the same compound, the outcome with HCT-116, in the series on HepG2, in the series with A549 and with HT-1080 was Active. The Activity result (in the series with WI-38; in the series on NIH3T3; in series [2]) was “Non-Toxic” each time. In addition, the MIC is 11 µg/mL and 25 µM in series [5]; 6 µg/mL and 12.5 µM in [1]; 11 µg/mL and 25 µM in the series with Acinetobacter baumannii [6]; over 100 µM with Acinetobacter baumannii [7]; over 100 µM with Escherichia coli [9]; 11 µg/mL and 25 µM in the series on Staphylococcus aureus [10].

On to `CC(=O)NCCc1ccccc1`, for which the outcome in the series on HCT-116, in the series on HepG2, in the series on A549 and with HT-1080 was inactive. For the same compound, the Activity result (with WI-38; in the series with NIH3T3; in series [2]) was “Non-Toxic” throughout.

For `Cc1c(C)[n+](CCc2c[nH]c3ccccc23)c(CC(C)C)n1CCc1c[nH]c2ccccc12`, the inhibition result in the series on RAW264.7 is “inactive”. For the same compound, the result in the series with HCT-116, in the series on HepG2, with A549 and in the series on HT-1080 was inactive. For the same compound, the Activity result (in the series with WI-38; in the series with NIH3T3; in series [2]) was “Non-Toxic” each time. Besides, the MIC in series [5] was over 100 µM; in series [1], 22 µg/mL and 50 µM; in the series on Acinetobacter baumannii [6], 22 µg/mL and 50 µM; in the series on Acinetobacter baumannii [7], over 100 µM; in the series on Escherichia coli [9], over 100 µM; with Staphylococcus aureus [10], over 100 µM.
